According to publication PMC2874894 (Investigative ophthalmology & visual science, 2009):

Target: rPASP (Pseudomonas aeruginosa small protease) (Pseudomonas aeruginosa, UniProt Q9I690)
Test: fluorescein-gelatin hydrolysis, fluorescence
Assay type: biochemical
Details: fluorescein-conjugated gelatin substrate; rPASP 10 ug; 24 h, 37 °C

Chain of rPASP (Pseudomonas aeruginosa small protease) (Q9I690 whole entry): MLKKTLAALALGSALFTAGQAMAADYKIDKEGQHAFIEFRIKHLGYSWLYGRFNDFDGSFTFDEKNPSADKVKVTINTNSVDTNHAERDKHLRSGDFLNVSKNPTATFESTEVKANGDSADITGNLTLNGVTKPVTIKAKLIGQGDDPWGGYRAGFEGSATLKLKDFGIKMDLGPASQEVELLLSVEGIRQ

**Q.** With `Cc1ccc(S(=O)(=O)N[C@@H](CCCCN)C(=O)CCl)cc1` [TLCK] as the molecule, how does the dose-dependent inhibition read?
**A.** Only TLCK demonstrated dose-dependent inhibition of rPASP activity
